For data set [1] the following is noted: patients to whom the drug is administered; cited from earlier work.
The test system of data set [2] is virus that causes hepatitis B. Particulars: at given dosages; cited from earlier work.
In the next data set the target is SH3 domain of Abl (Homo sapiens, UniProt P00519). As to the kind of experiment: Stated SH3 domain binding of recognition unit.
The target of data set [3] is T1, SH3P17, a novel human gene (human, UniProt Q15811 729-1220).
T1 construct: Fragment encoded by a cDNA clone, with at least four SH3 domains, on plaque-lift filters
T1 sequence: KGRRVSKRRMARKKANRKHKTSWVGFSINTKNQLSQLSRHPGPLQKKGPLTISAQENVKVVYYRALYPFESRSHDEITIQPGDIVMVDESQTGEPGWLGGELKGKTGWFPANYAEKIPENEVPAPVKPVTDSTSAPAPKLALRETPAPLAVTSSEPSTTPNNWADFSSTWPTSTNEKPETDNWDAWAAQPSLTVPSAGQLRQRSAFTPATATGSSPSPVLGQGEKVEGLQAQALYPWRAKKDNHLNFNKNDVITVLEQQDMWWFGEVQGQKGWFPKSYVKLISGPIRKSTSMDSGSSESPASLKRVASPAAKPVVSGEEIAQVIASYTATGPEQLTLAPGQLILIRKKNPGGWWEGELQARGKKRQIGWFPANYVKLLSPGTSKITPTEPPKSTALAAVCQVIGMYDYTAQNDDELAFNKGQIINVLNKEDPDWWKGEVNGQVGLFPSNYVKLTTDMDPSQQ
Nature of the data set: plaque-lift screen of human prostate cancer and bone marrow cDNA expression libraries with biotinylated peptide complexed to SA-AP (T12SRC.4 also present in the initial screens).

For the next data set, the target named is T2, SH3P14, human H74 (human, UniProt Q9UNF0 118-486, limits assumed).
T2 construct: Protein encoded by a cDNA clone from a lambda gt11 or gt22a human library, on plaque-lift filters
T2 sequence: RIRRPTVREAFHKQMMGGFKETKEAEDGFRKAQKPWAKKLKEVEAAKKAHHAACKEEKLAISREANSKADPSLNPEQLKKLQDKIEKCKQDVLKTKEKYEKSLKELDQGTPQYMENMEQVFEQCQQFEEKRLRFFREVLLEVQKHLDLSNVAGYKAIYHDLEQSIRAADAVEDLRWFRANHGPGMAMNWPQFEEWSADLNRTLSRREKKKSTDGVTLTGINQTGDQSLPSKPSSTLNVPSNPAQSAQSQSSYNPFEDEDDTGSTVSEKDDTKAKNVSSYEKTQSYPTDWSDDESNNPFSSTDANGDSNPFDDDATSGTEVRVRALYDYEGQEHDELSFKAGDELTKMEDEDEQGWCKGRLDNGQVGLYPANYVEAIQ
Described as above.

The target in data set [4] is T3, SH3P9, a novel human gene (human, UniProt O00499 44-593).
T3 construct: Protein encoded by a cDNA clone from a lambda gt11 or gt22a human library, on plaque-lift filters; The vector fusion partner is not described; also called human homolog of SH3P9
T3 sequence: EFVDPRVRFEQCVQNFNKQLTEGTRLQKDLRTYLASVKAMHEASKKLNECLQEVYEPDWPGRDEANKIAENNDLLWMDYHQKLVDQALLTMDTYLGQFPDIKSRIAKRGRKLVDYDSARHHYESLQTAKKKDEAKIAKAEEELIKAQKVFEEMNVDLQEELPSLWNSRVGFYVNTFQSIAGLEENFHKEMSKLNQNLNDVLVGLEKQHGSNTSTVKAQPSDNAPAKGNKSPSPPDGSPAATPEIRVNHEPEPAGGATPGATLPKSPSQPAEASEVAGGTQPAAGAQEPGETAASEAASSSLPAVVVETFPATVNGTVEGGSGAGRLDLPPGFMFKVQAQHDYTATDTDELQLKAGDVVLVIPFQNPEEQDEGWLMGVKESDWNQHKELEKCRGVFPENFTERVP
The data set is described as above.

In data set [5] the target is T4, SH3P18, a novel human gene (human, UniProt Q9NZM3 952-1192).
T4 construct: Fragment encoded by a cDNA clone, with at least three SH3 domains, on plaque-lift filters
T4 sequence: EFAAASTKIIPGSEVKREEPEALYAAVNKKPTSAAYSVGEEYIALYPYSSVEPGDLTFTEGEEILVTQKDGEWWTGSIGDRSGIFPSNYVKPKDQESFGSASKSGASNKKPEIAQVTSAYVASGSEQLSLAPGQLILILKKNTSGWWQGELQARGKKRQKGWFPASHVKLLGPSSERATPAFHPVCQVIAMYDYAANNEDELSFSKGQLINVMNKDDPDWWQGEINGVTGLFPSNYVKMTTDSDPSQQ
Described as above.

These results are taken from patent US7223547B2, “Polypeptides having a functional domain of interest and methods of identifying and using same” (Cytogen Corporation, priority 1995, dated 2007).

* marks the point of attachment. Biotin = O=C1N[C@H]2[C@H](CS[C@H]2CCCCC(=O)*)N1

SH3 domain of Abl, sequence (P00519 61-121 limits assumed): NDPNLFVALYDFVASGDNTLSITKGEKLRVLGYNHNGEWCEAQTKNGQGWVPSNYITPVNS

For the molecule `O=c1[nH]c(=O)n([C@@H]2O[C@H](CO)[C@@H](O)[C@@H]2F)cc1I` [FIAU], the “suspected toxic side effects” value in data set [1] is given as “liver failure in certain patients”. For the same molecule, the “effectiveness against the virus that causes hepatitis B” value in data set [2] is reported as “effective”.
“Biotin-SRPPRWSPPPVPLPTSLDSR-NH2 [PXXP.ABL.G1/2M]”: the “binding to the SH3 domain of Abl” value on SH3 domain of Abl was “bind”.
In the case of “Biotin-SRSLSEVSPKPPIRSVSLSR-NH2 [PXXP.NCK.S1/4]”, the “binding to the SH3 domain of Nck” value in the data set on SH3 domain of Nck was “bind”.

B1: T12SRC.1 (biotin-GILAPPVPPRNTR-NH2) (peptide)
peptide: Biotin-GILAPPVPPRNTR-NH2
SMILES: CC[C@H](C)[C@H](NC(=O)CNC(=O)CCCC[C@@H]1SC[C@@H]2NC(=O)N[C@@H]21)C(=O)N[C@@H](CC(C)C)C(=O)N[C@@H](C)C(=O)N1CCC[C@H]1C(=O)N1CCC[C@H]1C(=O)N[C@H](C(=O)N1CCC[C@H]1C(=O)N1CCC[C@H]1C(=O)N[C@@H](CCCNC(=N)N)C(=O)N[C@@H](CC(N)=O)C(=O)N[C@H](C(=O)N[C@@H](CCCNC(=N)N)C(N)=O)[C@@H](C)O)C(C)C
notes: Used complexed with streptavidin-alkaline phosphatase; also called variant of the pSrcCII peptide
For the molecule B1, the binding result in data set [3] is on record as “binds”; in the data set with SH3P14, human H74 it was “binds”; in data set [4], “binds”; in data set [5], “binds”.
